From patent publication US9447029B2, “Fluorinated arylalkylaminocarboxamide derivatives” (NEWRON PHARMACEUTICALS S.P.A., priority 2011, dated 2016) come the findings set out here.

The structures appear in SMILES notation. Where a name gives a salt, the structure may show the parent alone.

For series [1], the system named is TTXs sodium channels (ND7/23 cells). Kind of series: TTXs-sodium channel influx assay (fluorescence, membrane potential kit). Format: cell-based, rat. To be noted: veratridine 100 μM. As to the method:
ND7/23 rat dorsal root ganglion-derived cell line endogenously expresses a mixed population of TTXs sodium channels (such as Nav1.3, Nav1.2, Nav1.1, Nav1.6). These cells lack of TTXr sodium channels as shown by the absence of their respective transcripts. ND7/23 cells are grown in Dulbecco's Modified Eagle Medium (DMEM, Invitrogen, CA—USA) supplemented with 10% Foetal Bovine Serum (FBS, Invitrogen, CA—USA) and 1 mM sodium piruvate. The cells are seeded at 50,000 cells/well on 96 poly-L-lysine-coated plates and further incubated for 18-24 h before use.
The Membrane Potential Kit Assay (Molecular Devices, CA—USA), based on a negatively charged fluorescent dye able to monitor changes in membrane potential caused by the sodium influx due to the channel opening, is used for the assay.
Cells are incubated with the dye loading for 30 minutes at 25° C. Then, 100 nM of the toxin Anemonia sulcata (used as enhancer of the channel opener response) alone or in the presence of TTX (as reference standard) or test compound are added for further 15 minutes.
The fluorescence (excitation: 530 nm, emission: 565 nm wavelength) is measured before and after (40-45 s) the automated injection of the sodium channel opener veratridine (100 μM) using a Victor plate reader (Perkin Elmer, MA—USA).
The inhibition curves are calculated from 5 concentrations, each in triplicate, and the IC50 determined using a linear regression analysis.
The results, obtained with some compounds which are representative of the entire class of compounds of the invention are reported in Table 1.

Series [2] has as its target CYP2D6 (Homo sapiens (Human), UniProt P10635). Put plainly: Inhibition of Cytochrome P4502D6 (CYP2D6) using Supersomes. Format: in vitro ADME. To be noted: AMMC substrate, read-out: IC50 (Fluorinated derivative). As to the method: The inhibition of Cytochrome P4502D6 (CYP2D6) is assessed by performing in vitro inhibition studies using Supersomes, microsomes derived from baculovirus infected insect cells; the baculoviruses are engineered to express one or more drug metabolizing enzyme cDNAs. Supersomes catalyze the same enzymatic reactions as human liver microsome enzymes, but they contain much higher enzyme activity than other microsome sources (Crespi C. L. and Penman B. W., Advances Pharmacology, 43, 171-188 (1997); Crespi C. L. and Miller V. P., Analytical Biochemistry, 248, 188-190 (1997)).
Kits with Supersomes are Supplied by GENTEST (MA, USA).
Test compound is dissolved in DMSO 500× the highest final concentration desired in the IC50 assay. 30 ml of deionized water is pre-warmed to 37° C. and all kit components are placed on ice. For each well of column 1, 149.4 μL of NADPH-Cofactor Mix, (187.5 μl of Cofactors, 150 μl of G6PDH, 100 μl of Control Protein and 14.56 ml of 37° C. water) are added.
In each well from Column 2 to 12, 100 μl of Cofactor/DMSO mix (40 μL DMSO in 9.96 ml of NADPH-Cofactor Mix) are added. To each well of column 1, 0.6 μl of test compound or positive control are added. 50 μl from each well of column 1 are serially diluted to column 8. The extra 50 μl from column 8 are discarded. The plate is covered and pre-incubated at 37° C. for 10 minutes.
Preparation of enzyme/substrate mix: 7.92 ml of pre-warmed deionized water, 75 μl of enzyme, 3 μl of 10 mM AMMC and 2 ml of pre-warmed buffer are mixed.
After the pre-incubation time (10′), 100 μl of enzyme/substrate mix to each well from column 1 to 10 are added. The plate is incubated at 37° C. for 30 minutes. After this time, 75 μl of Stop Reagent to each well are added. For blank controls, 100 μl of enzyme/substrate mix are added to columns 11 and 12.
Plates are read at the Victor plate reader (Perkin Elmer, MA—USA) at 390 nm excitation and 460 nm emission wavelengths.

CYP2D6, sequence (P10635 whole entry): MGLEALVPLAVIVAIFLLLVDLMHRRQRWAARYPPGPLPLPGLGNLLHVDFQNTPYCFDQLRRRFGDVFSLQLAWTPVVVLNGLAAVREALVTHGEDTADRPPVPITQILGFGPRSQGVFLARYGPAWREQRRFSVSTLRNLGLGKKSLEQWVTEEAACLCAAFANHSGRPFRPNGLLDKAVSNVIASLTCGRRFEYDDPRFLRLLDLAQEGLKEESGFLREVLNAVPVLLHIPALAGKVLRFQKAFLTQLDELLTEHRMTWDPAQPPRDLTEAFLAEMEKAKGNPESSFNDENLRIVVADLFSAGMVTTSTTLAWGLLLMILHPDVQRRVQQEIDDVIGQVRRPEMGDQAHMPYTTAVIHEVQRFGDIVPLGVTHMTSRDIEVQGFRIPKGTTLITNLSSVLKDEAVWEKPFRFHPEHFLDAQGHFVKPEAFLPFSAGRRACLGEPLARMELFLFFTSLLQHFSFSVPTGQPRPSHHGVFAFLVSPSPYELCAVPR

With `CCCCOc1cccc(C(F)(F)CN(CCCOC)CC(=O)N(C)C)c1` [Example 3-2, 2-{[2,2-Difluoro-2-(3-butoxyphenyl)-ethyl]-(3-methoxypropyl)-amino}-N,N-dimethyl-acetamide, hydrochloride], the IC50 is 2.4 µM in series [1] and above 40 µM in series [2].

Consider `O=C(CNCC(F)(F)c1cccc(OCCCC(F)(F)F)c1)N1CCOCC1` [Example 1-21, 2-{2,2-Difluoro-2-[3-(4,4,4-trifluorobutoxy)-phenyl]-ethylamino}-1-(morpholin-4-yl)-ethanone, hydrochloride], for which the IC50 was 7.2 µM in series [1] and above 40 µM in series [2].
